Experimental data: US20260028364A1, “CATIONIC CHROMENONES AND THEIR USE IN ONCOLOGY” (FLORATEK PHARMA S.A., priority 2022, published 2026)

What was measured:
Assay type in all cases: cell-based
Kelly = assay: CellTiter-Glo cell viability, Kelly; settings: Kelly cells, 72 h with compound
Procedure: (§1) Antitumor activity against a panel of cancer cell lines Antitumor activity of the compounds was assessed by using the CellTiter-Glow® Luminescent Cell Viability assay (Promega #G7572) according to the manufacturer's instructions. The compounds were tested at 5 or 6 concentrations in 1:2 dilution increments (highest concentration 10 µM) in triplicate well conditions.
(§2) Tumor cells were grown at 37° C. in a humidified atmosphere with 5% CO2 in RPMI 1640 or DMEM medium, supplemented with 10% (v/v) fetal calf serum and 50 μg/ml gentamicin for up to 20 passages, and were passaged once or twice weekly. Cells were harvested using TrypLE or PBS buffer containing 1 mM EDTA, and the percentage of viable cells is determined using a cell counter.
(§3) Cells were harvested from exponential phase cultures, counted and plated in 96 well flat-bottom microtiter plates at a cell density depending on the cell line's growth rate (4,000-20,000 cells/well depending on the cell line's growth rate) in RPMI 1640 or DMEM medium supplemented with 10% (v/v) fetal calf serum and 50 μg/ml gentamicin (140 μl/well). Cultures were incubated at 37° C. and 5% CO2 in a humidified atmosphere. After 24 h, 10 μl of test compounds or control medium are added, and left on the cells for another 72 h. Compounds were serially diluted in DMSO, transferred in cell culture medium, and added to the assay plates. The DMSO concentration was kept constant at <0.2% v/v across the assay plate. Viability of cells was quantified by the CellTiter-Glow® Luminescent Cell Viability assay (Promega #G7572). Luminescence was measured with the microplate luminometer (En Vision Perkin Elmer).
(§4) Sigmoidal concentration-response curves were fitted to the data points (test-versus-control, T/C values) obtained for each tumor model using Graph Pad prism 5.02 software. IC50 values are reported as absolute IC50 values, being the concentration of test compound at the intersection of the concentration-response curves with T/C=50%.

LoVo = assay: CellTiter-Glo cell viability, LoVo; settings: Homo sapiens; LoVo cells, 72 h with compound
Procedure: as §1, §2
as §3, with “After 24 h, 10 μl of test compounds or control medium are added, and left on the cells for another 72 h. Compounds were serially diluted in DMSO, transferred in cell culture medium, and added to the assay plates. The DMSO concentration was kept constant at <0.2% v/v across the assay plate.” left out, “Elmer). […]” for “Elmer).”

HCC-15 = assay: CellTiter-Glo cell viability, HCC-15; settings: HCC15; HCC-15 cells, 72 h with compound
Procedure: as §1, §2, §3, §4

NCI-H1975 = assay: CellTiter-Glo cell viability, NCI-H1975; settings: Homo sapiens, H-1975 cells, 72 h with compound
Procedure: as §1, §2
as §3, with “After 24 h, 10 μl of test compounds or control medium are added, and left on the cells for another 72 h. Compounds were serially diluted in DMSO, transferred in cell culture medium, and added to the assay plates. The DMSO concentration was kept constant at <0.2% v/v across the assay plate.” left out, “Elmer). […]” for “Elmer).”

DMS-114 = assay: Caspase-Glo 3/7 apoptosis assay, DMS-114; settings: DMS-114 cells, 10 μM, 24 h
Procedure: Apoptosis activity was evaluated using Caspase-Glo 3/7 Assay kit (Promega-G8091) according to the manufacturer's instructions. Cells were grown as above and harvested from exponential phase cultures, counted and plated in 96 black well flat-bottom microtiter plates at a cell density depending on the cell line's growth rate (3,000-10,000 cells/well depending on the cell line's growth rate). Following an overnight incubation, compounds were added to the cell plates at various concentrations (highest at […]) with the DMSO concentration maintained at 0.1% for a 24 h period treatment. 100 μL of Caspase-Glo 3/7 Reagent was added to each well of 96-well plate containing 100 μL culture medium, and after 30 min at room temperature, luminescence was measured with the microplate luminometer (EnVision Perkin Elmer). The induced relative Caspase 3/7 activity of the tested compounds was determined by the following formula: Relative Caspase 3/7 activity (fold increase)=(RLU compound−RLU blank)/(RLU control−RLU blank).

MAPK/MEK/B-raf = assay: SelectScreen CellSensor pathway inhibition, MAPK/MEK/B-raf; settings: Homo sapiens, A-375; AP1-bla A375, no stimulus (constitutively activated)
Procedure: (§5) Inhibition of various cellular pathways known to be involved in malignancy was tested using the SelectScreen Cell-based Pathway Profiling GeneBLAzer™ cell signaling pathway specific CellSensor™ cell lines ((Thermo Fisher). The assay is based on a beta-lactamase reporter activity which is modulated and can be measured quantitatively and selectively with the LiveBLAzer™-FRET B/G Loading Substrate. SelectScreen Cell-Based Pathway Profiling Service uses XLfit from IDBS. The dose response curve is curve fit to model number 205 (sigmoidal dose-response model). Custom logic was built by Thermo Fisher for the data analysis tool to address the different compound characteristics that can be observed with functional assays.
MAPK/MEK/B-raf—AP1-bla A375—Inhibitor Screen, Constitutively Activated
AP1-bla A375 cells are thawed and resuspended in Assay Media (OPTI-MEM, 0.5% dialyzed FBS, 0.1 mM NEAA, 1 mM Sodium Pyruvate, 100 U/mL/[…] Pen/Strep) to a concentration of 312,500 cells/mL. 4 μL of a 10×serial dilution of Rafi Kinase Inhibitor (control inhibitor starting concentration, 10,000 nM) or compounds are added to appropriate wells of a TC-Treated assay plate. 32 μL of cell suspension (10,000 cells) is added to the wells. 4 μL of Assay Media is added to all wells to bring the final assay volume to 40 μL. […] The plate is read on a fluorescence plate reader.

[1] = system: Toll-like Receptor (TLR4); assay: SelectScreen CellSensor pathway inhibition, Toll-like Receptor (TLR4); settings: Homo sapiens; NFkB-bla THP-1, stimulus LPS
Procedure: as §5
Toll-like Receptor (TLR4)—NFKB-bla THP-1—Inhibitor Screen, Activated by LPS
NFKB-bla THP-1 cells are thawed and resuspended in Assay Media (RPMI, 0.5% dialyzed FBS, 0.1 mM NEAA, 1 mM Sodium Pyruvate, 100 U/mL/[…] Pen/Strep) to a concentration of 625,000 cells/mL. 32 μL of cell suspension is added to each well of a 384-well TC-Treated assay plate. Cells in Assay Media are incubated for 16-24 hours in the plate at 37° C./5% CO2 in a humidified incubator. […] The plate is read on a fluorescence plate reader.

For `COc1ccc2c(=O)c(-c3ccc(CCCC[P+](c4ccccc4)(c4ccccc4)c4ccccc4)cc3)coc2c1OC.[Br-]` [SND470, (4-(4-(7,8-Dimethoxy-4-oxo-4H-chromen-3-yl)phenyl)butyl)triphenylphosphonium bromide], the IC50 (Kelly) was 12 nM, the IC50 (LoVo) was 910 nM and the IC50 (HCC-15) was 10 nM. The IC50 (NCI-H1975) was 140 nM, the “Fold activation of Caspase 3/7” value (DMS-114) was 3.32 Fold and the IC50 (MAPK/MEK/B-raf) was 2700 nM. For the same molecule, the IC50 [1] was 560 nM.
